In patent publication US20200291018A1, “TAM KINASE INHIBITORS” (SYROS PHARMACEUTICALS, INC., priority 2017, published 2020):

Columns and labels:
[1] = molecular target: T1, FLT3 (Homo sapiens, UniProt P36888); test: TR-FRET kinase activity assay, FLT3; type: biochemical; details: ATP at Km, 60 minutes
T1 sequence (P36888 27-993): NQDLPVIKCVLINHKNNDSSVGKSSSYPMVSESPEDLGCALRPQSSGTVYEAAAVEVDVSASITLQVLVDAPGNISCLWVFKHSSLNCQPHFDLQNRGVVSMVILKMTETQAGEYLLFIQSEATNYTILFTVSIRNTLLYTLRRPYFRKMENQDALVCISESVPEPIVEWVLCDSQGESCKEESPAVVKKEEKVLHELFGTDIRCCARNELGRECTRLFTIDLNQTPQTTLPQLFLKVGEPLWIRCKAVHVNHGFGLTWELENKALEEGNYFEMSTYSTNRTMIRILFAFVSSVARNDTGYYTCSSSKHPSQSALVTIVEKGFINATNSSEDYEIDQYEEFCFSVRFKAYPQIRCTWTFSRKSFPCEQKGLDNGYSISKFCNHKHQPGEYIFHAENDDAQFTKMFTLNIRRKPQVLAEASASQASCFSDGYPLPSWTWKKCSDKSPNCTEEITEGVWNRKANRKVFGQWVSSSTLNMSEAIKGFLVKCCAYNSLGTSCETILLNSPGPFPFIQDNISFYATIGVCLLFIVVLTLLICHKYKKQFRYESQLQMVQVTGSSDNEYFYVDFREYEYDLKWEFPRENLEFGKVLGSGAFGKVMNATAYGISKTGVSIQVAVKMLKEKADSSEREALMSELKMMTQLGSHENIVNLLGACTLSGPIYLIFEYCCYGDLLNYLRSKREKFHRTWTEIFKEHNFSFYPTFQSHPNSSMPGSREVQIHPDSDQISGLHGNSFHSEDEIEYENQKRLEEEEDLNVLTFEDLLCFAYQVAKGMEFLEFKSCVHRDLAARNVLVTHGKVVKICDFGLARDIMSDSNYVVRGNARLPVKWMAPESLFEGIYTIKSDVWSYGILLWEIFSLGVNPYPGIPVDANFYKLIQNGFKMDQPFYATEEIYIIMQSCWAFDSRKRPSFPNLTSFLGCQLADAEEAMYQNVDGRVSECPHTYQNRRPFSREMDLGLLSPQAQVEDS
Experimental: (§1) IC50 values for compound inhibition of AXL, FLT3, MERTK and TYRO3 activity were determined using a TR-FRET activity assay. A peptide substrate with a fluorescent label is phosphorylated on a tyrosine by each enzyme, where the now phosphorylated product is bound by a Europium-labeled antibody specific to that phosphorylation site. The proximity between the antibody and the substrate gives a signal known as TR-FRET. As the enzyme is inhibited by compound, less phosphorylated peptide product is made, causing a decrease in overall signal.
(§2) Activity assays were performed in a 384-well, small volume, black microplates in an active enzyme volume of 10 uL and final developed volume of 20 uL. Final assay conditions are 50 mM HEPES pH 7.5, 10 mM MgCl2, 1 mM EGTA, 0.01% Brij 35 and 1 mM DTT, all at RT. Enzyme, substrate-labeled peptide and compound are mixed, and then the reaction is initiated with the addition of ATP at Km concentration for each enzyme. The reaction is allowed to run 60 minutes and then quenched with a 12.5 mM EDTA (ethylenediamine tetraacetic acid) solution. The plate is then developed with the addition of Europium-labeled antibody for a final volume of 20 uL and is then incubated for 30 minutes in darkness. Plates are read in a PHERASTAR® plate reader. Data are analyzed in GraphPad PRISM.

[2] = molecular target: T2, MERTK (Homo sapiens, UniProt Q12866); test: TR-FRET kinase activity assay, MERTK; type: biochemical; details: for IC50: TR-FRET activity assay, ATP at Km, 60 minutes, read-out: Mer IC50; for Mer/Flt3 ratio (FLT3 IC50/Mer IC50): ratio calculated as FLT3 IC50/Mer IC50
T2 sequence (Q12866 21-999): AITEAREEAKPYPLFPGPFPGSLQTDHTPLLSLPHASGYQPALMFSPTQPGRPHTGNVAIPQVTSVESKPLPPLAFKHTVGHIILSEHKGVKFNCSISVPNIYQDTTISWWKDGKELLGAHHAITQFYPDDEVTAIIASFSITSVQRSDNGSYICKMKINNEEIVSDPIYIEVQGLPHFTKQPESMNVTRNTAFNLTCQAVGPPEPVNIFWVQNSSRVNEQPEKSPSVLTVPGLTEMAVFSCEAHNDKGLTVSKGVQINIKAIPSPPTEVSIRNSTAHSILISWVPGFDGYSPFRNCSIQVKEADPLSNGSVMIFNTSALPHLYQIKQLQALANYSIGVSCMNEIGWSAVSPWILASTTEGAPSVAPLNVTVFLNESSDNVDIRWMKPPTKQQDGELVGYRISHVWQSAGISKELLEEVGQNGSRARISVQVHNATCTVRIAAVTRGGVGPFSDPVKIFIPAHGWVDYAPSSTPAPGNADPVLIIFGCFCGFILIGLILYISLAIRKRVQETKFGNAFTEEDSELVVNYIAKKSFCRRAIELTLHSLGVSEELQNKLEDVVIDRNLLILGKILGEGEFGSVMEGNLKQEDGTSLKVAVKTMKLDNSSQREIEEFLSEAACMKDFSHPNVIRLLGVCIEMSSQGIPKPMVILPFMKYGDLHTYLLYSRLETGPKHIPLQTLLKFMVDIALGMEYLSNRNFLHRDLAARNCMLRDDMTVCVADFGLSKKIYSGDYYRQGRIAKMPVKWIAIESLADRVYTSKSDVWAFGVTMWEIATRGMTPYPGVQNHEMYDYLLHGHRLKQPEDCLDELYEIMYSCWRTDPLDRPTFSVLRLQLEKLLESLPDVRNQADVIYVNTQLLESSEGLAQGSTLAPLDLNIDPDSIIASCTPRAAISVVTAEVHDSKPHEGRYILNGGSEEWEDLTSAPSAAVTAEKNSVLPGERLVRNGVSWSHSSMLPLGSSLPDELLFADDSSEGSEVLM
Experimental: as §1, §2

Compound | IC50 [1] [nM] | IC50 [2] [nM] | Mer/Flt3 ratio (FLT3 IC50/Mer IC50) [2]
CC[C@H](C)Nc1ncc2c(NC3CCN(C)CC3)ncc([C@H]3CC[C@H](O)CC3)c2n1 [Compound 220] | 100 to 1000 | ≤ 100 | +++ (a ratio of >100)
CC[C@H](C)Nc1ncc2c(OC3CCN(C)CC3)ncc([C@H]3CC[C@H](O)CC3)c2n1 [Compound 221] | 1000 to 10000 | ≤ 100 | +++ (a ratio of >100)
CC[C@H](C)Nc1ncc2c(N3CC[C@@H](N(C)C)C3)ncc([C@H]3CC[C@H](O)CC3)c2n1 [Compound 222] | 1000 to 10000 | ≤ 100 | ++ (a ratio of between 10 and 100)
CC[C@H](C)Nc1ncc2c(OC3C[C@H]4CC[C@@H](C3)O4)ncc([C@H]3CC[C@H](O)CC3)c2n1 (stereo partly drawn) [Compound 223] | 100 to 1000 | ≤ 100 | ++ (a ratio of between 10 and 100)
O[C@H]1CC[C@H](c2cnc(OC3CCNCC3)c3cnc(NCCC(F)(F)F)nc32)CC1 [Compound 224] | ≤ 100 | ≤ 100 | ++ (a ratio of between 10 and 100)
CC[C@H](C)Nc1ncc2c(=O)n(C3CCOCC3)cc([C@H]3CC[C@H](O)CC3)c2n1 [Compound 225] | 1000 to 10000 | ≤ 100 | ++ (a ratio of between 10 and 100)
CC[C@H](C)Nc1ncc2c(OC3CCOCC3)ncc([C@H]3CC[C@H](O)CC3)c2n1 [Compound 226] | 100 to 1000 | ≤ 100 | +++ (a ratio of >100)
CC[C@H](C)Nc1ncc2c(OC3CC(C)(C)N(C)C(C)(C)C3)ncc([C@H]3CC[C@H](O)CC3)c2n1 [Compound 227] | 100 to 1000 | ≤ 100 | +++ (a ratio of >100)
CCC(CC)Nc1ncc2c(OC3CCNCC3)ncc([C@H]3CC[C@H](O)CC3)c2n1 [Compound 228] | 1000 to 10000 | ≤ 100 | ++ (a ratio of between 10 and 100)
CC[C@H](C)Nc1ncc2c(O[C@H]3CC[C@H](O)CC3)ncc([C@H]3CC[C@H](O)CC3)c2n1 [Compound 229] | 100 to 1000 | ≤ 100 | ++ (a ratio of between 10 and 100)
CC[C@H](C)Nc1ncc2c(Cl)ncc([C@H]3CC[C@H](O)CC3)c2n1 [Compound 230] | 1000 to 10000 | ≤ 100 | +++ (a ratio of >100)
CC[C@H](C)NC1=NC2C([C@H]3CC[C@H](O)CC3)=CN(C(C)C)C(=O)C2C=N1 (stereo partly drawn) [Compound 231] | 1000 to 10000 | ≤ 100 | +++ (a ratio of >100)
O[C@H]1CC[C@H](c2cnc(OC3CCNCC3)c3cnc(N[C@@H]4CCCOC4)nc32)CC1 [Compound 232] | 100 to 1000 | 100 to 1000 | + (a ratio of >2.0 and <10)
CC[C@H](C)Nc1ncc2c(OC3CCN(S(C)(=O)=O)CC3)ncc([C@H]3CC[C@H](O)CC3)c2n1 [Compound 233] | 100 to 1000 | ≤ 100 | +++ (a ratio of >100)

Next, values leading:

IC50 [1] [nM] | IC50 [2] [nM] | Mer/Flt3 ratio (FLT3 IC50/Mer IC50) [2] | Compound
1000 to 10000 | ≤ 100 | +++ (a ratio of >100) | CC[C@H](C)Nc1ncc2c(=O)n(C3CCN(S(C)(=O)=O)CC3)cc([C@H]3CC[C@H](O)CC3)c2n1 [Compound 234]
100 to 1000 | ≤ 100 | +++ (a ratio of >100) | CCOc1ncc([C@H]2CC[C@H](O)CC2)c2nc(N[C@@H](C)CC)ncc12 [Compound 235]
100 to 1000 | ≤ 100 | + (a ratio of >2.0 and <10) | CCOc1ncc(CC2CCNCC2)c2nc(N[C@@H](C)CC)ncc12 [Compound 236]
1000 to 10000 | ≤ 100 | +++ (a ratio of >100) | CC[C@H](C)Nc1ncc2c(OC3C[C@H]4CC[C@@H](C3)O4)ncc([C@H]3CC[C@H](O)CC3)c2n1 (stereo partly drawn) [Compound 237]
100 to 1000 | ≤ 100 | ++ (a ratio of between 10 and 100) | CC[C@H](C)Nc1ncc2c(NC34CCC(O)(CC3)CC4)ncc([C@H]3CC[C@H](O)CC3)c2n1 [Compound 238]
1000 to 10000 | ≤ 100 | +++ (a ratio of >100) | CC[C@H](C)Nc1ncc2c(OC3CCN(C)CC3)ncc([C@H]3CC[C@H](O)CC3)c2n1 [Compound 239]
1000 to 10000 | ≤ 100 | +++ (a ratio of >100) | CC[C@H](C)Nc1ncc2c(C3CCN(C)CC3)ncc([C@H]3CC[C@H](O)CC3)c2n1 [Compound 240]
1000 to 10000 | 100 to 1000 | ++ (a ratio of between 10 and 100) | CC[C@H](C)Nc1ncc2c(OC(CO)CO)ncc([C@H]3CC[C@H](O)CC3)c2n1 [Compound 241]
1000 to 10000 | 100 to 1000 | ++ (a ratio of between 10 and 100) | COC[C@H](C)Nc1ncc2c(OC3CCOCC3)ncc(C3=CCC4(CC3)OCCO4)c2n1 [Compound 242]
1000 to 10000 | ≤ 100 | +++ (a ratio of >100) | COC[C@H](C)Nc1ncc2c(OC3CCOCC3)ncc(C3CCC4(CC3)OCCO4)c2n1 [Compound 243]
1000 to 10000 | ≤ 100 | +++ (a ratio of >100) | CCc1ncc([C@H]2CC[C@H](O)CC2)c2nc(N[C@@H](C)CC)ncc12 [Compound 244]
100 to 1000 | ≤ 100 | +++ (a ratio of >100) | CC[C@H](C)Nc1ncc2c(OCC(F)(F)F)ncc([C@H]3CC[C@H](O)CC3)c2n1 [Compound 245]
1000 to 10000 | ≤ 100 | +++ (a ratio of >100) | CC[C@H](C)Nc1ncc2c(OC3CC(C)(C)NC(C)(C)C3)ncc([C@H]3CC[C@H](O)CC3)c2n1 [Compound 246]
1000 to 10000 | 100 to 1000 | ++ (a ratio of between 10 and 100) | CC[C@H](C)Nc1ncc2c(OC3C[C@@H](C)O[C@@H](C)C3)ncc([C@H]3CC[C@H](O)CC3)c2n1 (stereo partly drawn) [Compound 247]
